# Data published in patent US20090048214A1, “Methods for Treating Renal Tumors Using 2, 4-Pyrimidinediamine Drug and Prodrug Compounds” (RIGEL PHARMACEUTICALS, INC, priority 2006, published 2009).
# Assays:
# [1] = tested on: RPM1-8226; conditions: RPM1-8226, Leukemia; besylate salt
# [2] = tested on: SR; conditions: Leukemia, besylate salt
# [3] = tested on: NCI-H23; conditions: NCI-H23, Non-Small Cell Lung Cancer; besylate salt
# [4] = tested on: COLO 205; conditions: COLO 205, Colon Cancer; besylate salt
# [5] = tested on: SW-620; conditions: SW-620, Colon Cancer; besylate salt
# [6] = tested on: SF-268; conditions: SF-268, CNS Cancer; besylate salt
# [7] = tested on: LOX I MVI; conditions: Melanoma, besylate salt
# [8] = tested on: HL-60(TB); assay: cells; conditions: Homo sapiens
# [9] = tested on: SK-MEL-2; conditions: SK-MEL-2, Melanoma; besylate salt
# [10] = tested on: UACC-257; conditions: UACC-257, Melanoma; besylate salt
# [11] = tested on: UACC-62; conditions: UACC-62, Melanoma; besylate salt
# [12] = tested on: SK-OV-3; conditions: SK-OV-3, Ovarian Cancer; besylate salt
# [13] = tested on: SN12C; conditions: Renal Cancer, besylate salt
# [14] = tested on: MCF7; conditions: MCF7, Breast Cancer; besylate salt
# [15] = tested on: MDA-MB-231/ATCC; conditions: Breast Cancer, besylate salt
# [16] = tested on: T-47D; conditions: Breast Cancer, besylate salt
# [17] = tested on: RPM1-8226; assay: cells; conditions: Homo sapiens
# [18] = tested on: A549/ATCC; assay: cells; conditions: Homo sapiens, A549, read-out: LC50
# [19] = tested on: NCI-H460; assay: cells; conditions: Homo sapiens, NCI-H460, read-out: LC50
# [20] = tested on: NCI-H522; assay: cells; conditions: Homo sapiens, NCI-H522, read-out: LC50
# [21] = tested on: HCT-15; assay: cells; conditions: Homo sapiens, HCT-15, read-out: LC50
# [22] = tested on: KM12; assay: cells; conditions: Homo sapiens
# [23] = tested on: SF-539; assay: cells; conditions: Homo sapiens
# [24] = tested on: U251; assay: cells; conditions: Homo sapiens, U-251, read-out: LC50
# [25] = tested on: MALME-3M; assay: cells; conditions: Homo sapiens
# [26] = tested on: SK-MEL-5; assay: cells; conditions: Homo sapiens
# [27] = tested on: UACC-62; assay: cells; conditions: Homo sapiens, UACC-62, read-out: LC50
# [28] = tested on: IGROV1; assay: cells; conditions: Homo sapiens
# [29] = tested on: OVCAR-3; assay: cells; conditions: Homo sapiens
# [30] = tested on: RXF 393; assay: cells; conditions: Homo sapiens
# [31] = tested on: UO-31; assay: cells; conditions: Homo sapiens
# [32] = tested on: NCI/ADR-RES; assay: cells; conditions: Homo sapiens
# [33] = tested on: MDA-MB-231/ATCC; assay: cells; conditions: Homo sapiens, MDA-MB-231, read-out: LC50
# [34] = tested on: MDA-MB-435; assay: cells; conditions: Homo sapiens
# [35] = tested on: BT-549; assay: cells; conditions: Homo sapiens
# [36] = tested on: T-47D; assay: cells; conditions: Homo sapiens, T47D, read-out: LC50
structure (smiles),measurement,setting,value
COc1cc(Nc2ncc(F)c(Nc3ccc4c(n3)NC(=O)C(C)(C)O4)n2)cc(OC)c1OC [Compound 1],TGI,[1],>1.00E−4
same,TGI,[2],>1.00E−4
same,TGI,[3],>1.00E−4
same,TGI,[4],>1.00E−4
same,TGI,[5],>1.00E−4
same,TGI,[6],>1.00E−4
same,TGI,[7],1.13E−6
same,IC50,"[8]; HL-60, read-out: G150",> 100 µM
same,CC50,"[8]; HL-60, read-out: LC50",> 100 µM
same,TGI,[9],>1.00E−4
same,TGI,[10],>1.00E−4
same,TGI,[11],>1.00E−4
same,TGI,[12],>1.00E−4
same,TGI,[13],>1.00E−4
same,TGI,[14],>1.00E−4
same,TGI,[15],>1.00E−4
same,TGI,[16],>1.00E−4
same,IC50,[17]; read-out: G150,> 100 µM
same,CC50,[17]; read-out: LC50,> 100 µM
same,CC50,[18],> 100 µM
same,CC50,[19],> 100 µM
same,CC50,[20],> 100 µM
same,CC50,[21],> 100 µM
same,IC50,"[22]; KM12, read-out: G150",0.355 µM
same,CC50,"[22]; KM12, read-out: LC50",> 100 µM
same,IC50,"[23]; SF-539, read-out: G150",0.605 µM
same,CC50,"[23]; SF-539, read-out: LC50",> 100 µM
same,CC50,[24],> 100 µM
same,IC50,[25]; read-out: G150,> 100 µM
same,CC50,[25]; read-out: LC50,> 100 µM
same,IC50,"[26]; SK-MEL-5, read-out: G150",> 100 µM
same,CC50,"[26]; SK-MEL-5, read-out: LC50",> 100 µM
same,CC50,[27],> 100 µM
same,IC50,"[28]; IGROV-1, read-out: G150",0.796 µM
same,CC50,"[28]; IGROV-1, read-out: LC50",> 100 µM
same,IC50,"[29]; OVCAR-3, read-out: G150",> 100 µM
same,CC50,"[29]; OVCAR-3, read-out: LC50",> 100 µM
same,IC50,"[30]; RXF 393, read-out: G150",0.196 µM
same,CC50,"[30]; RXF 393, read-out: LC50",> 100 µM
same,IC50,"[31]; UO-31, read-out: G150",0.596 µM
same,CC50,"[31]; UO-31, read-out: LC50",> 100 µM
same,IC50,[32]; read-out: G150,> 100 µM
same,CC50,[32]; read-out: LC50,> 100 µM
same,CC50,[33],> 100 µM
same,IC50,"[34]; MDA-MB-435, read-out: G150",3.62 µM
same,CC50,"[34]; MDA-MB-435, read-out: LC50",> 100 µM
same,IC50,"[35]; BT-549, read-out: G150",2.43 µM
same,CC50,"[35]; BT-549, read-out: LC50",> 100 µM
same,CC50,[36],> 100 µM
